Test results as given in patent publication US12156523B2 (priority 2017, dated 2024).

Legend:
Pyricularia oryzae [1] = test: whole plant or invertebrate; format: in vivo; settings: soil, read-out: Control value (number of lesions at the second leaf)
Pyricularia oryzae [2] = test: whole plant or invertebrate; format: in vivo; settings: foliar, read-out: Control value (number of lesions at the second leaf)

| SMILES | pest or weed control at 10 µg/mL (Pyricularia oryzae [1]) | pest or weed control at 200 ppm (Pyricularia oryzae [2]) | pest or weed control at 25 ppm (Pyricularia oryzae [2]) |
| --- | --- | --- | --- |
| O=C(Nc1ccc2c(c1)CCCC2)c1cc(F)nc(F)c1F [Example 1-3] | ≥ 80% | ≥ 80% | – |
| O=C(Nc1nccs1)c1cc(F)nc(F)c1F [Example 1-18] | ≥ 80% | ≥ 80% | – |
| O=C(Nc1cc(Cl)c(Cl)c(Cl)c1)c1cc(F)nc(F)c1F [Example 1-19] | ≥ 80% | – | ≥ 80% |
| Cc1ccc(NC(=O)c2cc(F)nc(F)c2F)cc1Cl [Example 1-30] | ≥ 80% | – | ≥ 80% |
| O=C(Nc1cccc(Cl)c1)c1cc(F)nc(F)c1F [Example 1-32] | ≥ 80% | ≥ 80% | – |
| CCOc1cccc(NC(=O)c2cc(F)nc(F)c2F)c1 [Example 1-38] | – | – | ≥ 80% |
| CC(C)Oc1cccc(NC(=O)c2cc(F)nc(F)c2F)c1 [Example 1-41] | – | – | ≥ 80% |
| COc1cccc(NC(=O)c2cc(F)nc(F)c2F)c1 [Example 1-44] | ≥ 80% | – | ≥ 80% |
| CC(C)Oc1ccc(NC(=O)c2cc(F)nc(F)c2F)cc1 [Example 1-59] | ≥ 80% | – | ≥ 80% |
| COC(=O)CNC(=O)c1cc(F)nc(F)c1F [Example 1-86] | ≥ 80% | ≥ 80% | – |
| O=C(NC(=O)c1cc(F)nc(F)c1F)c1ccccc1 [Example 1-93] | ≥ 80% | ≥ 80% | – |
| O=C(Nc1ccccc1)c1cc(F)nc(F)c1F [Example 1-98] | ≥ 80% | ≥ 80% | – |
| CC(=O)Oc1ccccc1COC(=O)c1cc(F)nc(F)c1F [Example 1-102] | ≥ 80% | ≥ 80% | – |
| COc1ccccc1OC(=O)c1cc(F)nc(F)c1F [Example 1-103] | ≥ 80% | ≥ 80% | – |
| O=C(OCc1cccc(Cl)c1)c1cc(F)nc(F)c1F [Example 1-105] | ≥ 80% | ≥ 80% | – |
| O=C(Oc1ccccc1)c1cc(F)nc(F)c1F [Example 1-129] | – | ≥ 80% | – |
| COc1ccccc1NC(=O)c1cc(F)nc(F)c1 [Example 1-131] | – | ≥ 80% | – |
| COc1cc(NC(=O)c2cc(F)nc(F)c2)cc(OC)c1 [Example 1-132] | ≥ 80% | ≥ 80% | – |
| Cc1ccc(NC(=O)c2cc(F)nc(F)c2)cc1Cl [Example 1-133] | ≥ 80% | ≥ 80% | – |
| CC(C)Oc1ccc(NC(=O)c2cc(F)nc(F)c2)cc1 [Example 1-137] | ≥ 80% | ≥ 80% | – |
| COc1ccc(NC(=O)c2cc(F)nc(F)c2)cc1 [Example 1-138] | – | ≥ 80% | – |
| O=C(Nc1ccc(C(F)(F)F)cc1)c1cc(F)nc(F)c1 [Example 1-139] | ≥ 80% | ≥ 80% | ≥ 80% |
| O=C(OC/C=C\COC(=O)c1cc(F)nc(F)c1F)c1cc(F)nc(F)c1F [Example 1-151] | ≥ 80% | – | – |

| SMILES | pest or weed control at 10 µg/mL (Pyricularia oryzae [1]) | pest or weed control at 200 ppm (Pyricularia oryzae [2]) | pest or weed control at 25 ppm (Pyricularia oryzae [2]) |
| --- | --- | --- | --- |
| O=C(OC/C=C/COC(=O)c1cc(F)nc(F)c1F)c1cc(F)nc(F)c1F [Example 1-152] | ≥ 80% | – | – |
| O=C(Nc1ccc(Cl)cc1)c1cc(F)nc(F)c1 [Example 1-153] | ≥ 80% | – | – |
| O=C(Nc1ccc(Cl)c(Cl)c1)c1cc(F)nc(F)c1 [Example 1-155] | ≥ 80% | – | – |
| C=CCNC(=O)c1cc(F)nc(F)c1 [Example 1-159] | ≥ 80% | – | – |
| CCc1cccc(NC(=O)c2cc(F)nc(F)c2)c1 [Example 1-168] | ≥ 80% | ≥ 80% | ≥ 80% |
| CCc1ccccc1NC(=O)c1cc(F)nc(F)c1 [Example 1-169] | ≥ 80% | ≥ 80% | – |
| Cc1ccc(NC(=O)c2cc(F)nc(F)c2)cc1 [Example 1-170] | ≥ 80% | ≥ 80% | – |
| O=C(Nc1ccncc1)c1cc(F)nc(F)c1 [Example 1-172] | – | ≥ 80% | ≥ 80% |
| O=C(Nc1ccccc1[N+](=O)[O-])c1cc(F)nc(F)c1 [Example 1-173] | ≥ 80% | ≥ 80% | – |
| O=C(OCc1ccc(Cl)nc1)c1cc(F)nc(F)c1 [Example 1-174] | ≥ 80% | ≥ 80% | ≥ 80% |
| O=C(Nc1cccc([N+](=O)[O-])c1)c1cc(F)nc(F)c1 [Example 1-175] | ≥ 80% | ≥ 80% | – |
| O=C(Nc1ccc([N+](=O)[O-])cc1)c1cc(F)nc(F)c1 [Example 1-176] | ≥ 80% | ≥ 80% | – |
| CC(C)c1ccccc1NC(=O)c1cc(F)nc(F)c1 [Example 1-177] | – | ≥ 80% | – |
| CC(C)c1cccc(NC(=O)c2cc(F)nc(F)c2)c1 [Example 1-178] | ≥ 80% | ≥ 80% | – |
| CC(C)c1ccc(NC(=O)c2cc(F)nc(F)c2)cc1 [Example 1-179] | ≥ 80% | ≥ 80% | – |
| CCCCc1ccc(NC(=O)c2cc(F)nc(F)c2)cc1 [Example 1-180] | ≥ 80% | ≥ 80% | – |
| CCCCCCc1ccc(NC(=O)c2cc(F)nc(F)c2)cc1 [Example 1-181] | ≥ 80% | – | – |
| C#CCOC(=O)c1cc(F)nc(F)c1 [Example 1-182] | ≥ 80% | – | – |
| O=C(OCc1ccccc1)c1cc(F)nc(F)c1 [Example 1-183] | ≥ 80% | ≥ 80% | – |
| CCCOC(=O)c1cc(F)nc(F)c1 [Example 1-184] | ≥ 80% | – | – |
| CCOC(=O)c1cc(F)nc(F)c1 [Example 1-185] | ≥ 80% | – | – |
| CCc1ccc(OC(=O)c2cc(F)nc(F)c2)cc1 [Example 1-186] | ≥ 80% | – | – |
| COc1cccc(OC(=O)c2cc(F)nc(F)c2)c1 [Example 1-187] | ≥ 80% | ≥ 80% | – |

| SMILES | pest or weed control at 10 µg/mL (Pyricularia oryzae [1]) | pest or weed control at 200 ppm (Pyricularia oryzae [2]) | pest or weed control at 25 ppm (Pyricularia oryzae [2]) |
| --- | --- | --- | --- |
| C=CCOC(=O)c1cc(F)nc(F)c1 [Example 1-188] | ≥ 80% | – | – |
| COC(=O)c1cc(F)nc(F)c1 [Example 1-189] | ≥ 80% | – | – |
| CC(=O)c1cccc(NC(=O)c2cc(F)nc(F)c2)c1 [Example 1-190] | ≥ 80% | ≥ 80% | – |
| CSc1cccc(NC(=O)c2cc(F)nc(F)c2)c1 [Example 1-192] | ≥ 80% | – | – |
| O=C(Nc1nc2ccccc2s1)c1cc(F)nc(F)c1 [Example 1-194] | ≥ 80% | – | – |
| COc1ccc(NC(=O)c2cc(F)nc(F)c2)cc1 [Example 1-200] | ≥ 80% | – | – |
| O=C(Nc1ccc(F)cc1)c1cc(F)nc(F)c1 [Example 1-201] | ≥ 80% | – | – |
| O=C(Oc1ccc([N+](=O)[O-])cc1)c1cc(F)nc(F)c1 [Example 1-203] | ≥ 80% | – | – |
| O=C(OC1CCCCC1)c1cc(F)nc(F)c1 [Example 1-205] | ≥ 80% | – | – |
| Cc1cccc(OC(=O)c2cc(F)nc(F)c2)c1 [Example 1-206] | ≥ 80% | – | – |
| O=C(Oc1cccc(F)c1)c1cc(F)nc(F)c1 [Example 1-207] | ≥ 80% | – | – |
| Cc1ccccc1OC(=O)c1cc(F)nc(F)c1 [Example 1-208] | ≥ 80% | – | – |
| O=C(Oc1ccccc1Cl)c1cc(F)nc(F)c1 [Example 1-209] | ≥ 80% | – | – |
| O=C(Oc1ccccc1F)c1cc(F)nc(F)c1 [Example 1-211] | ≥ 80% | – | – |
| CCCCCCOC(=O)c1cc(F)nc(F)c1 [Example 1-213] | ≥ 80% | – | – |
| CCCCCCCCCCCCOC(=O)c1cc(F)nc(F)c1 [Example 1-214] | ≥ 80% | – | – |
| O=C(Oc1ccccc1)c1cc(F)nc(F)c1 [Example 1-218] | ≥ 80% | – | – |
| Cn1cccc1C(=O)c1cc(F)nc(F)c1F [Example 2-2] | ≥ 80% | – | – |
| O=C(c1cc(F)nc(F)c1F)N1CCc2ccccc21 [Example 2-4] | ≥ 80% | – | – |
| O=C1c2ccccc2S(=O)(=O)N1C(=O)c1cc(F)nc(F)c1F [Example 2-5] | ≥ 80% | – | – |
| CC(=O)OCc1cc(F)nc(F)c1F [Example 3-1] | ≥ 80% | – | – |
| Fc1cc(C2=NCCO2)c(F)c(F)n1 [Example 4-2] | ≥ 80% | – | – |
| Fc1cc(C2=NCCCO2)c(F)c(F)n1 [Example 4-3] | ≥ 80% | – | – |
